In patent US20050026994A1, “Use of 2, 4diamino-3-hydroxycarboxylic acid derivatives as proteasome inhibitors” (priority 2000, published 2005):

These compounds were tested against T1, purified human placenta 20S proteasome (Homo sapiens, UniProt P28074) (assay: Inhibition of the chymotrypsin-like activity of the 20S proteasome (Suc-LLVY-AMC hydrolysis, fluorescence)). Settings: substrate Suc-LLVY-AMC 80 μM, 60 min preincubation at room temperature, incubation 3-24 h at 37° C.
T1 construct: purified human placenta 20S proteasome; tissue Diabetes Forschungsinstitut, Düsseldorf, Germany; host or cells: human placenta
Format: biochemical
Experimental: It is based on the hydrolysis of the fluorogenic peptide Suc-LLVY-AMC (Succinyl-leucine-leucine-valine-tyrosine-7-amino-4-methylcoumarin), which is cleaved exclusively at the Y-AMC bond by the 20S proteasome. Hydrolysis of this peptide is accompanied by an increase in fluorescence intensity (λex355 nm, λem460 nm) due to release of the […] that accompanies diffusion apart of the hydrolysis product Suc-LLVY.
2 μl of a 1 mM solution of a test compound in DMSO (dimethylsulfoxide, 20 μM final concentration in the well) are preincubated for 60 min at room temperature in black 96-well microtiter plates together with a mixture of 1 μl purified human placenta 20S proteasome (Diabetes Forschungsinstitut, Düsseldorf, Germany; about 100 ng proteasome, depending on the proteasome preparation) and 47 μl buffer-Ca (5 mM CaCl2, 20 mM Trs/HCl (Tris(hydroxymethyl)-amino-methane hydrochloride) pH 8.0). 3 pd of a 2.67 mM solution of Suc-LLVY-AMC (Bachem, Switzerland) in DMSO (80 μM final concentration in the well) and 47 μl buffer-Ca are mixed and added. The resulting mixture is incubated for 3-24 h at 37° C. If desired, proteolysis of the substrate can be stopped by addition of 50 μl stop solution (100 mM monochloroacetic acid, 130 mM NaOH, 100 mM acetic acid, pH=4.3). The fluorescence is monitored with a FLUOROSKAN ASCENT™ microtiter plate reader.
To each measure series two control experiments have to be carried out • 1.) 0% value: 2 μl DMSO are used in the above described assay instead of 2 μl of a 1 mM solution of a test compound in DMSO and 48 μl buffer-Ca instead of a mixture of 47 μl buffer-Ca and 1 μl purified proteasome. • 2.) 100% value: in the above described assay 2 μl DMSO are used instead of 2 μl of a 1 mM solution of the test compound in DMSO. Calculation [formula]
The IC50 value is defined as that concentration of a compound at which the remaining activity is 50%.

In order of falling IC50:
1. COc1ccc(CNC(C(=O)NC(C(=O)NCc2ccc(OC)cc2O)C(C)C)C(O)C(Cc2ccccc2)NC(=O)C(NC(=O)OC(C)(C)C)C(C)(C)C)cc1 (centres unmarked) [Example 3, {1-[1-Benzyl-2-hydroxy-3-[1-(2-hydroxy-4-methoxy-benzylcarbamoyl)-2-methyl-propylcarbamoyl]-3-(4-methoxy-benzylamino)-propylcarbamoyl]-2,2-dimethyl-propyl}-carbamic acid tert-butyl ester]  26000 nM
2. COc1ccc(CNC(C(=O)NC(C(=O)NCc2ccc(OC)cc2O)C(C)C)C(O)C(Cc2ccccc2)NC(=O)CNC(=O)OCc2ccccc2)cc1 (centres unmarked) [Example 7, {[1-Benzyl-2-hydroxy-3-[1-(2-hydroxy-4-methoxy-benzylcarbamoyl)-2-methyl-propylcarbamoyl]-3-(4-methoxy-benzylamino)-propylcarbamoyl]-methyl}-carbamic acid benzyl ester]  9000 nM
3. COc1ccc(CNC(C(=O)NC(C(=O)NCc2ccc(OC)cc2O)C(C)C)C(O)C(Cc2ccccc2)NC(=O)C(NC(=O)OCc2ccc3ccccc3c2)C(C)(C)C)cc1 (centres unmarked) [Example 5, {1-[1-Benzyl-2-hydroxy-3-[1-(2-hydroxy-4-methoxy-benzylcarbamoyl)-2-methyl-propylcarbamoyl]-3-(4-methoxy-benzylamino)-propylcarbamoyl]-2,2-dimethyl-propyl}-carbamic acid naphthalen-2-ylmethyl ester]  5200 nM
4. COc1ccc(CNC(C(=O)NC(C(=O)NCc2ccc(OC)cc2O)C(C)C)C(O)C(Cc2ccccc2)NC(=O)C(NC(=O)OCc2ccccc2)C(C)C)cc1 (centres unmarked) [Example 8, {1-[1-Benzyl-2-hydroxy-3-[1-(2-hydroxy-4-methoxy-benzylcarbamoyl)-2-methyl-propylcarbamoyl]-3-(4-methoxy-benzylamino)-propylcarbamoyl]-2-methyl-propyl}-carbamic acid benzyl ester]  3300 nM
5. COc1ccc(CNC(C(=O)NC(C(=O)NCc2ccc(OC)cc2O)C(C)C)C(O)C(Cc2ccccc2)NC(=O)C(NC(=O)OCc2ccncc2)C(C)(C)C)cc1 (centres unmarked) [Example 6, {1-[1-Benzyl-2-hydroxy-3-[1-(2-hydroxy-4-methoxy-benzylcarbamoyl)-2-methyl-propylcarbamoyl]-3-(4-methoxy-benzylamino)-propylcarbamoyl]-2,2-dimethyl-propyl}-carbamic acid pyridin-4-ylmethyl ester]  2200 nM
6. COc1ccc(CNC(C(=O)NC(C(=O)NCc2ccc(OC)cc2O)C(C)C)C(O)C(Cc2ccccc2)NC(=O)C(NC(=O)OCc2cccc3ccccc23)C(C)(C)C)cc1 (centres unmarked) [Example 4, {1-[1-Benzyl-2-hydroxy-3-[1-(2-hydroxy-4-methoxy-benzyl-carbamoyl)-2-methyl-propylcarbamoyl]-3-(4-methoxy-benzylamino)-propylcarbamoyl]-2,2-dimethyl-propyl}-carbamic acid naphthalen-1-ylmethyl ester]  2000 nM
7. COc1ccc(CNC(C(=O)NC(C(=O)NCc2ccc(OC)cc2O)C(C)C)C(O)C(Cc2ccccc2)NC(=O)C(NC(=O)OCc2cc(C)cc(C)c2)C(C)(C)C)cc1 (centres unmarked) [Example 14, {1-[1-Benzyl-2-hydroxy-3-[1-(2-hydroxy-4-methoxy-benzyl-carbamoyl)-2-methyl-propylcarbamoyl]-3-(4-methoxy-benzylamino)-propylcarbamoyl]-2,2-dimethyl-propyl}-carbamic acid 3,5-dimethyl-benzyl ester]  1100 nM
8. COc1ccc(CN[C@@H](C(=O)N[C@H](C(=O)NCc2ccc(OC)cc2O)C(C)C)[C@@H](O)[C@H](Cc2ccccc2)NC(=O)[C@@H](NC(=O)OCC2CCCCC2)C(C)(C)C)cc1 [Example 15, {(S)-1-[(1S,2S,3R)-1-Benzyl-2-hydroxy-3-[(S)-1-(2-hydroxy-4-methoxy-benzylcarbamoyl)-2-methyl-propylcarbamoyl]-3-(4-methoxy-benzylamino)-propylcarbamoyl]-2,2-dimethyl-propyl}-carbamic acid cyclohexylmethyl ester]  1000 nM
9. COc1ccc(CN[C@@H](C(=O)N[C@H](C(=O)NCc2ccc(OC)cc2O)C(C)C)[C@@H](O)[C@H](Cc2ccccc2)NC(=O)[C@@H](NC(=O)OCc2ccccc2)C(C)(C)C)cc1 [Example 1]  900 nM
10. COc1ccc(CNC(C(=O)NC(C(=O)NCc2ccc(OC)cc2O)C(C)C)C(O)C(Cc2ccccc2)NC(=O)C(NC(=O)CCc2cccc(N)c2)C(C)(C)C)cc1 (centres unmarked) [Example 12, 4-{2-[3-(3-Amino-phenyl)-propionylamino]-3,3-dimethyl-butyrylamino}-3-hydroxy-2-(4-methoxy-benzylamino)-5-phenyl-pentanoic acid [1-(2-hydroxy-4-methoxy-benzylcarbamoyl)-2-methyl-propyl]-amide]  600 nM
11. COc1ccc(CNC(C(=O)NC(C(=O)NCc2ccc(OC)cc2O)C(C)C)C(O)C(Cc2ccccc2)NC(=O)C(NC(=O)OCc2cccc(N)c2)C(C)(C)C)cc1 (centres unmarked) [Example 13, {1-[1-Benzyl-2-hydroxy-3-[1-(2-hydroxy-4-methoxy-benzylcarbamoyl)-2-meth-propylcarbamoyl]-3-(4-methoxy-benzylamino)-propylcarbamoyl]-2,2-dimethyl-propyl}-carbamic acid 3-amino-benzyl ester]  600 nM
12. COc1ccc(CNC(C(=O)NC(C(=O)NCc2ccc(OC)cc2O)C(C)C)C(O)C(Cc2ccccc2)NC(=O)C(NC(=O)OCc2cccc(C)c2)C(C)(C)C)cc1 (centres unmarked) [Example 11, {1-[1-Benzyl-2-hydroxy-3-[1-(2-hydroxy-4-methoxy-benzylcarbamoyl)-2-methyl-propylcarbamoyl]-3-(4-methoxy-benzylamino)-propylcarbamoyl]-2,2-dimethyl-propyl}-carbamic acid 3-methylbenzyl ester]  500 nM
13. COC(=O)CCC(NC(=O)C(NCc1ccc(OC)cc1)C(O)C(Cc1ccccc1)NC(=O)C(NC(=O)OCc1ccccc1)C(C)C)C(=O)NCc1ccc(OC)cc1O (centres unmarked) [Example 2, 4-[4-(2-Benzyloxycarbonylamino-3-methyl-butyrylamino)-3-hydroxy-2-(4-methoxy-benzylamino)-5-phenyl-pentanoylamino]-4-(2-hydroxy-4-methoxy-benzyl-carbomoyl)-butyric acid methyl ester]  400 nM
14. COc1ccc(CNC(C(=O)NC(C(=O)NCc2ccc(OC)cc2O)C(C)C)C(O)C(Cc2ccccc2)NC(=O)C(NC(=O)Cc2cccc3ccccc23)C(C)(C)C)cc1 (centres unmarked) [Example 10, 4-[3,3-Dimethyl-2-(2-naphthalen-1-yl-acetylamino)-butyrylamino]-3-hydroxy-2-(4-methoxy-benzylamino)-5-phenyl-pentanoic acid [1-(2-hydroxy-4-methoxy-benzyl-carbamoyl)-2-methyl-propyl]-amide]  100 nM
